Columns and labels:
[1] = test system: erythrocyte membranes; test: transport across erythrocyte membranes; type: in vitro ADME
[2] = test system: sickle hemoglobin (HbS); test: solubility assay: ability of a compound to increase solubility of sickle hemoglobin; type: biochemical; details: low concentrations (5 mM.); the higher the ratio the higher the activity; compared with DiClBz and p-BrBz
Source text: In comparative tests which we reported in J. of Med. Chem., 1984, 27, 103-105, which is incorporated herein by reference, ethacrynic acid was compared with active agents (1) [(3,4-dichlorobenzyl)oxy]acetic acid (DiClBz2) and (2) [(p-bromobenzyl)oxy]acetic acid (p-BrBz). The solubility assay measures the ability of a compound to increase solubility of sickle hemoglobin (HbS). […] The higher the ratio the higher the activity of the compound.

[3] = test system: HbS; test: chromatographic separation for covalent binding to HbS

With `C=C(CC)C(=O)c1ccc(OCC(=O)O)c(Cl)c1Cl` [ethacrynic acid] the “ability to cross the red blood cell membrane and react with hemoglobin” value [1] was “confirmed the ability of ethacrynic acid to cross the red blood cell membrane and react with hemoglobin”, the solubility ratio [2] was “higher solubility ratio than DiClBz and p-BrBz” and the “covalent binding between HbS and compound” value [3] was “desired tight covalent binding between the HbS and ethacrynic acid had occurred”.
